The values that follow are results of earlier work, collected in patent US5439687A, “Dosage forms having zero-order dihydropyridine calcium antagonist release” (priority 1992, dated 1995).

For the data set the following is noted: rapid influx rate with high plasma level peaks.

For the compound `COC(=O)C1=C(C)NC(C)=C(C(=O)OC)C1c1ccccc1[N+](=O)[O-]` [nifedipine], the “Side-effect rate and blood pressure lowering effectiveness” value was “associated with an increased side-effect rate (tachycardia) and reduced effectiveness in lowering blood pressure”.
